We go through 43 compounds from patent US9150592B2, “Heterocyclic nuclear hormone receptor modulators” (AbbVie Inc., priority 2012, dated 2015).

A value given as a limit tells only on which side of the number the result lay.

Assay [1] concerns the target T1, Glucocorticoid Receptor (GR) (Homo sapiens, UniProt P04150).
T1 construct: purchased Invitrogen P2893
T1 sequence (P04150 1-777): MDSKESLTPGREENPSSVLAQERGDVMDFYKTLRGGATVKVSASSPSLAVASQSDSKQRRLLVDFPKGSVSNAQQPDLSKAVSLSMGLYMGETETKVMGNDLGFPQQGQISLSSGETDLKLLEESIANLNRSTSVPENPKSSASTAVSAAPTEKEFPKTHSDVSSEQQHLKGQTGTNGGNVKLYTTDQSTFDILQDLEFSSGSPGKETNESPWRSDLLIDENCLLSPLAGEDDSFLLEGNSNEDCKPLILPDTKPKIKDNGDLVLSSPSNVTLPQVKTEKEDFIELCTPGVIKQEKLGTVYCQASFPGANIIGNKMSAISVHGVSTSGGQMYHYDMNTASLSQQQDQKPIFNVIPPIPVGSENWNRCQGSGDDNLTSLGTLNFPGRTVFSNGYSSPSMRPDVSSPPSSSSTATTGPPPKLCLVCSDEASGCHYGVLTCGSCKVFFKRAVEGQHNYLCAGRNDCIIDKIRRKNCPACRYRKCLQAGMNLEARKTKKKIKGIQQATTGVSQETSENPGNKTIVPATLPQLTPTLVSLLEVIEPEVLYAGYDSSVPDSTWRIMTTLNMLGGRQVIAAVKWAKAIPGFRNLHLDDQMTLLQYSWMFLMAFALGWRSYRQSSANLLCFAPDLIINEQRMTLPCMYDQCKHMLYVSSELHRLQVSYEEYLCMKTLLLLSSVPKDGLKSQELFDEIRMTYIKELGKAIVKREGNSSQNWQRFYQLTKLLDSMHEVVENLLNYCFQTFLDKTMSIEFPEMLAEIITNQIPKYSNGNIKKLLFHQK
Nature of the assay: GR Fluorescence Polarization Assay (PolarScreen Glucocorticoid Receptor Competitor Assay, Red). As to conditions: IC50 class ranges, read-out: GR binding. The procedure, abridged: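 Competitive fluorescence-polarization assay using a red fluorescent glucocorticoid tracer with human GR in kit buffer. Compounds serially diluted 1:4 in DMSO, incubated with tracer and GR overnight at 4° C, then polarization read.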

Assay [2] relates to IL-6 in A549 cells stimulated with IL-1β. Kind of assay: A549 Cell Assay to Measure Inflammation Markers (inhibition of IL-1β-induced IL-6). As to conditions: Homo sapiens, A549, A549 Cell Assay to Measure Inflammation Markers; intrinsic activity, Emax class ranges. It counts as cell-based. The procedure, abridged:
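Compound pre-incubated with A549 cells 1 h at 37 °C, then stimulated with IL-1β (1 ng/mL final, 0.1% DMSO). Supernatant IL-6 quantified by MSD immunoassay after a further incubation. IC50 and Emax derived.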

In general, Emax refers to the size of the effect at its maximum, as opposed to the concentration needed. As for `COc1ccc(C)c(C2SC(C)(C)CNc3c2c(C2CC2)nn3C)c1` (centres unmarked) [D.106], the IC50 in assay [1] is under 100 nM. This compound also registered an Emax in assay [2] of under 50%.

Take `CCn1nc(C2CC2)c2c1NCC(C)(C)SC2c1ccc(Cl)cc1C` (centres unmarked) [D.107]: the IC50 in assay [1] was under 100 nM. Besides, the Emax in assay [2] is under 50%.

As for `CCn1nc(-c2ccncn2)c2c1NCCSC2c1ccc(Br)cc1C` (centres unmarked) [D.108], in assay [1], the IC50 was under 100 nM. Moreover, the Emax in assay [2] is over 50%.

Turning to `Cc1cc2c(cnn2-c2ccc(F)cc2)cc1C1SCCNc2c1c(-c1ccccn1)nn2C` (centres unmarked) [D.109], in assay [1], the IC50 was under 100 nM. This compound returned an Emax in assay [2] of over 70%.

With `COC(=O)c1ccc(C2SCCNc3c2c(-c2ccccn2)nn3C)c(Cl)c1` (centres unmarked) [E.1, methyl 3-chloro-4-[1-methyl-3-(2-pyridyl)-4,6,7,8-tetrahydropyrazolo[3,4-e][1,4]thiazepin-4-yl]benzoate], in assay [1], the IC50 is under 100 nM. This compound also yielded a maximum response (Emax) in assay [2] of under 50%.

Take `COC(=O)c1ccc(C)c(C2SCCNc3c2c(-c2ccccn2)nn3C)c1` (centres unmarked) [E.3, methyl 4-methyl-3-[1-methyl-3-(2-pyridyl)-4,6,7,8-tetrahydropyrazolo[3,4-e][1,4]thiazepin-4-yl]benzoate]: the IC50 in assay [1] was over 10000 nM. The Emax in assay [2] is under 50%.

For the compound `COC(=O)c1cc(C2SCCNc3c2c(-c2ccccn2)nn3C)c(C)s1` (centres unmarked) [E.5], the IC50 in assay [1] is 1000 to 10000 nM. In assay [2], this compound came in with an Emax of under 50%.

Take `COC(=O)c1ccc(C2SCC(C)Nc3c2c(-c2ccccn2)nn3C)c(C)c1` (centres unmarked) [E.7]: the IC50 in assay [1] is under 100 nM. For the same compound, the Emax in assay [2] is over 50%.

`Cc1ncccc1NC(=O)c1ccc(C2SCCNc3c2c(-c2ccccn2)nn3C)c(Cl)c1` (centres unmarked) [F.1, 3-chloro-N-(2-methyl-3-pyridyl)-4-[1-methyl-3-(2-pyridyl)-4,6,7,8-tetrahydropyrazolo[3,4-e][1,4]thiazepin-4-yl]benzamide]: the IC50 in assay [1] is under 100 nM. The compound further showed an Emax in assay [2] of over 70%.

Regarding `Cc1ncccc1NC(=O)c1ccc(-c2nn(C)c3c2C(c2ccc(Cl)cc2Cl)SCCN3)nc1` (centres unmarked) [F.2], in assay [1], the IC50 lay within 1000 to 10000 nM. The same compound yielded a maximal response (Emax) in assay [2] of under 50%.

As to `Cc1ncccc1NC(=O)c1ccc(C2SCCNc3c2c(-c2ccccn2)nn3C)cc1` (centres unmarked) [F.3], the IC50 in assay [1] lay within 1000 to 10000 nM. This compound also registered a maximal effect (Emax) in assay [2] of under 50%.

On to `Cc1cc(C(=O)Nc2cccnc2C)sc1C1SCCNc2c1c(-c1ccccn1)nn2C` (centres unmarked) [F.4], for which, in assay [1], the IC50 was over 10000 nM. In addition, the Emax in assay [2] is under 50%.

`Cc1ccc(C(=O)Nc2cccnc2C)cc1C1SCCNc2c1c(-c1ccccn1)nn2C` (centres unmarked) [F.5]: the IC50 in assay [1] was over 10000 nM. The compound further registered an Emax in assay [2] of under 50%.

Consider `Cc1ncccc1NC(=O)c1cc(C2SCCNc3c2c(-c2ccccn2)nn3C)c(C)s1` (centres unmarked) [F.6], for which the IC50 in assay [1] was in the range of 1000 to 10000 nM. The compound further yielded a maximal effect (Emax) in assay [2] of under 50%.

As for `CCn1nc(-c2ccccn2)c2c1NCCCC2c1ccc(C(=O)Nc2cccnc2C)cc1C` (centres unmarked) [F.7], the IC50 in assay [1] was under 100 nM. The compound also showed a maximal response (Emax) in assay [2] of over 70%.

Regarding `Cc1ccc(C#N)cc1C1SCCNc2c1c(-c1ccccn1)nn2C` (centres unmarked) [G.1, 4-methyl-3-[1-methyl-3-(2-pyridyl)-4,6,7,8-tetrahydropyrazolo[3,4-e][1,4]thiazepin-4-yl]benzonitrile], in assay [1], the IC50 was in the range of 100 to 1000 nM. In assay [2], the Emax was under 50%.

Regarding `Cc1cc(C#N)ccc1[C@@H]1S[C@@H](C)CNc2c1c(C)nn2C` [G.2], in assay [1], the IC50 lay within 100 to 1000 nM. Moreover, in assay [2], the Emax was under 50%.

Turning to `Cc1ccc(C#N)cc1C1SC(C)(C)CNc2c1c(C1CC1)nn2C` (centres unmarked) [G.5], the IC50 in assay [1] was 100 to 1000 nM. Besides, the Emax in assay [2] is under 50%.

Take `Cc1cc(C#N)ccc1C1SC(C)(C)CNc2c1c(C)nn2C` (centres unmarked) [G.6]: the IC50 in assay [1] lay within 100 to 1000 nM. The compound further showed an Emax in assay [2] of under 50%.

With `Cc1cc(C#N)ccc1C1SCC(C)Nc2c1c(-c1ccccn1)nn2C` (centres unmarked) [G.7], in assay [1], the IC50 is under 100 nM. In assay [2], the maximal effect (Emax) was over 70%.

For the compound `Cc1cc(C#N)ccc1C1SCCNc2c1c(-c1ccccn1)nn2C` (centres unmarked) [G.8, 3-methyl-4-(1-methyl-3-(pyridin-2-yl)-4,6,7,8-tetrahydro-1H-pyrazolo[3,4-e][1,4]thiazepin-4-yl)benzonitrile], the IC50 in assay [1] is under 100 nM. In addition, the Emax in assay [2] is over 60%.

As to `Cc1cc(C#N)ccc1C1SCCNc2onc(-c3ccccn3)c21` (centres unmarked) [G.9], the IC50 in assay [1] is under 100 nM. The Emax in assay [2] is under 50%.

Regarding `CCn1nc(-c2ccccn2)c2c1NCCSC2c1ccc(C#N)cc1C` (centres unmarked) [G.10, 3-methyl-4-(1-ethyl-3-(pyridin-2-yl)-4,6,7,8-tetrahydro-1H-pyrazolo[3,4-e][1,4]thiazepin-4-yl)benzonitrile], in assay [1], the IC50 was under 100 nM. The compound also had a maximum response (Emax) in assay [2] of over 70%.

Take `Cc1cc(C(=O)Nc2cccnc2)ccc1C1SC(C)(C)CNc2c1c(C)nn2C` (centres unmarked) [H.1, 3-methyl-N-(3-pyridyl)-4-(1,3,6,6-tetramethyl-7,8-dihydro-4H-pyrazolo[3,4-e][1,4]thiazepin-4-yl)benzamide]: in assay [1], the IC50 fell in the range of 1000 to 10000 nM. This compound displayed an Emax in assay [2] of under 50%.

As to `Cn1nc(-c2ccccn2)c2c1NCCSC2c1ccc(C(=O)Nc2cccnc2)cc1Cl` (centres unmarked) [H.3], the IC50 in assay [1] lay within 100 to 1000 nM. The same compound registered a maximum response (Emax) in assay [2] of under 50%.

Consider `CCn1nc(-c2ccccn2)c2c1NCCSC2c1ccc(C(=O)Nc2cccnc2C)cc1C` (centres unmarked) [H.4], for which the IC50 in assay [1] is under 100 nM. Also, the Emax in assay [2] is over 70%.

`Cc1cc(C(=O)Nc2cccnc2C)ccc1C1SC(C)(C)CNc2c1c(C)nn2C` (centres unmarked) [H.5]: the IC50 in assay [1] was in the range of 1000 to 10000 nM. Besides, the Emax in assay [2] was under 50%.

Regarding `Cc1cc(C(=O)Nc2cccnc2C)ccc1C1SCC(C)Nc2c1c(-c1ccccn1)nn2C` (centres unmarked) [H.6], in assay [1], the IC50 is under 100 nM. This compound registered a maximal response (Emax) in assay [2] of over 70%.

Take `Cn1nc(-c2ccccn2)c2c1NCCSC2c1ccc(C(N)=O)cc1Cl` (centres unmarked) [I.1, 3-chloro-4-[1-methyl-3-(2-pyridyl)-4,6,7,8-tetrahydropyrazolo[3,4-e][1,4]thiazepin-4-yl]benzamide]: the IC50 in assay [1] lay within 100 to 1000 nM. Moreover, in assay [2], the Emax was under 50%.

`Cc1cc(C(N)=O)ccc1C1SC(C)(C)CNc2c1c(C)nn2C` (centres unmarked) [I.4]: the IC50 in assay [1] lay in the range of 1000 to 10000 nM. This compound also registered a maximal response (Emax) in assay [2] of under 50%.

For the compound `Cc1cc(Cl)ccc1C1SCC(C(C)C)Nc2c1c(-c1ccccn1)nn2C` (centres unmarked) [K.3], the IC50 in assay [1] is under 100 nM. Further, in assay [2], the Emax is under 50%.

Consider `CC1CSC(c2ccc(Br)cc2C(F)(F)F)c2c(-c3ccccn3)nn(C)c2N1` (centres unmarked) [K.11], for which the IC50 in assay [1] is under 100 nM. Besides, the Emax in assay [2] is under 50%.

Consider `Cc1nn(C)c2c1C(c1ccc(Cl)cc1Cl)[S+]([O-])C(C)(C)CN2` (centres unmarked) [L.1, 4-(2,4-dichlorophenyl)-1,3,6,6-tetramethyl-7,8-dihydro-4H-pyrazolo[3,4-e][1,4]thiazepine 5-oxide], for which the IC50 in assay [1] was over 10000 nM. Also, the maximal response (Emax) in assay [2] was under 50%.

Regarding `Cn1nc(-c2ccccn2)c2c1NCC[S+]([O-])C2c1ccc(Cl)cc1Cl` (centres unmarked) [L.2], the IC50 in assay [1] lay within 1000 to 10000 nM. Besides, in assay [2], the maximal effect (Emax) was under 50%.

`Cn1nc(-c2ccccn2)c2c1NCCS(=O)(=O)C2c1ccc(Cl)cc1Cl` (centres unmarked) [L.3]: the IC50 in assay [1] lay in the range of 100 to 1000 nM. In addition, the Emax in assay [2] is under 50%.

Take `Cc1nn(C)c2c1C(c1ccc(Cl)cc1Cl)S(=O)(=O)C(C)(C)CN2` (centres unmarked) [L.4]: the IC50 in assay [1] is 1000 to 10000 nM. For the same compound, the Emax in assay [2] is under 50%.

As for `CCn1nc(-c2ccccn2)c2c1NC(=O)CCC2c1ccc(C(=O)Nc2cccnc2C)cc1C` (centres unmarked) [O.2], the IC50 in assay [1] fell in the range of 100 to 1000 nM. In addition, the Emax in assay [2] was over 70%.

As to `CCn1nc(-c2ccccn2)c2c1NCCSC2c1ccc(C(=O)Nc2cc(C)no2)cc1C` (centres unmarked) [R.1, 4-(1-ethyl-3-(pyridin-2-yl)-4,6,7,8-tetrahydro-1H-pyrazolo[3,4-e][1,4]thiazepin-4-yl)-3-methyl-N-(3-methylisoxazol-5-yl)benzamide], in assay [1], the IC50 is under 100 nM. Further, in assay [2], the Emax is under 50%.

For the compound `CCn1nc(-c2ccccn2)c2c1NCCSC2c1ccc(C(=O)Nc2ccnn2C)cc1C` (centres unmarked) [S.1, 4-(1-ethyl-3-(pyridin-2-yl)-4,6,7,8-tetrahydro-1H-pyrazolo[3,4-e][1,4]thiazepin-4-yl)-3-methyl-N-(1-methyl-1H-pyrazol-5-yl)benzamide], the IC50 in assay [1] was under 100 nM. The compound further returned a maximal response (Emax) in assay [2] of over 70%.

As to `CCn1nc(-c2ccccn2)c2c1NCCSC2c1ccc(C(=O)Nc2cc(C)nn2C)cc1C` (centres unmarked) [S.2], in assay [1], the IC50 is under 100 nM. In assay [2], this compound came in with an Emax of over 70%.

`CCn1nc(-c2ccccn2)c2c1NCCSC2c1ccc(C(=O)Nc2nncs2)cc1C` (centres unmarked) [S.3]: the IC50 in assay [1] was under 100 nM. Also, the Emax in assay [2] was under 50%.

Turning to `CCn1nc(-c2ccccn2)c2c1NCCSC2c1ccc(C(=O)Nc2nnc(C)s2)cc1C` (centres unmarked) [S.4], the IC50 in assay [1] was under 100 nM. Further, the Emax in assay [2] is under 50%.

For `CCn1nc(-c2ccccn2)c2c1NCCSC2c1ccc(C(=O)Nc2nnc[nH]2)cc1C` (centres unmarked) [S.5], in assay [1], the IC50 was under 100 nM. For the same compound, in assay [2], the Emax was over 70%.
